Experimental findings from ChEMBL document CHEMBL1201862, “PubChem BioAssay data set” (2004) are described below.

Each structure is given as a SMILES string.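 1) Cells in 96-well plates. 2) Compound, 48 h, 5 concentrations. 3) Linear interpolation between surrounding doses. 4) Unreached endpoint = highest concentration. GI50 is the concentration that inhibits growth by half.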 Calls of active or inactive are those of the source. Cut-off read from the data, not from the text of the source: active = GI50 up to about 1.1 µM and inactive = higher.

Some test systems named below: MDA-MB-435; HCT-116; SN12C; SK-MEL-28; CAKI-1; SNB-19; LOX IMVI; NCI-H460; MDA-N; NCI-H522; NCI-H226; MDA-MB-231; PC-3; TK-10; U-251; ACHN; IGROV-1; HCT-15; SK-MEL-2; MCF7.
What all share (experiment): inhibition of tumour cell growth, NCI panel, 48 h

For the molecule `O=C(O)CN(CC(=O)O)c1ccccc1`, the GI50 with MDA-MB-435 is 70.6 µM (inactive); with HCT-116 it was 56.5 µM (inactive); with SN12C, > 100 µM (inactive); in the test with SK-MEL-28, > 100 µM (inactive); in the test on CAKI-1, > 100 µM (inactive); with SNB-19 it was > 100 µM (inactive). The GI50 with LOX IMVI is > 100 µM (inactive); in the test with NCI-H460, 71.1 µM (inactive); with MDA-N it was 97.5 µM (inactive); in the test with NCI-H522 it was 26.9 µM (inactive); in the test on NCI-H226 it was > 100 µM (inactive); with MDA-MB-231, 92.3 µM (inactive). Moreover, the GI50 was 56 µM (inactive) in the test on PC-3; > 100 µM (inactive) in the test with TK-10; 74.5 µM (inactive) in the test on U-251; > 100 µM (inactive) in the test with ACHN; > 100 µM (inactive) with IGROV-1; > 100 µM with HCT-15. For the same molecule, the GI50 was 33.2 µM (inactive) in the test on SK-MEL-2 and > 100 µM (inactive) in the test with MCF7.

Turning to `O=C(O)c1ccn(-c2cccc(-n3ccc(C(=O)O)n3)n2)n1`, the GI50 in the test with MDA-MB-435, in the test on HCT-116, with SN12C, with SK-MEL-28, in the test on CAKI-1 and in the test with SNB-19 was > 100 µM (inactive) throughout. Also, the GI50 in the test with LOX IMVI, in the test on NCI-H460, in the test with MDA-N, in the test with NCI-H522, with NCI-H226 and in the test on MDA-MB-231 was > 100 µM (inactive) throughout. Besides, the GI50 was > 100 µM (inactive) in the test on PC-3; > 100 µM (inactive) in the test on TK-10; > 100 µM (inactive) in the test with U-251; > 100 µM (inactive) in the test on ACHN; > 100 µM (inactive) in the test on IGROV-1; > 100 µM with HCT-15. Further, the GI50 in the test on SK-MEL-2 and with MCF7 was > 100 µM (inactive) each time.

With `N#CS/C(C(Cl)=C(Cl)Cl)=C(/Cl)[N+](=O)[O-]`, the GI50 in the test on MDA-MB-435 was 1.66 µM (inactive); in the test on HCT-116 it was 1.5 µM (inactive); in the test on SN12C it was 2.21 µM (inactive); with SK-MEL-28 it was 1.76 µM (inactive); in the test on CAKI-1 it was 0.977 µM (active); in the test on SNB-19, 20.2 µM (inactive). In addition, the GI50 with LOX IMVI is 0.904 µM (active); in the test with NCI-H460, 13.7 µM (inactive); with MDA-N it was 1.8 µM (inactive); in the test with NCI-H522 it was 1.04 µM (active); in the test with NCI-H226, 7.66 µM (inactive); with MDA-MB-231 it was 3.1 µM (inactive). Further, the GI50 in the test with PC-3 was 5.33 µM (inactive); with TK-10 it was 2.23 µM (inactive); in the test on U-251, 14.1 µM (inactive); in the test with ACHN, 1.64 µM (inactive); with IGROV-1 it was 2.32 µM (inactive); in the test on HCT-15, 2.32 µM. Besides, the GI50 with SK-MEL-2 was 4.52 µM (inactive); in the test on MCF7 it was 3.9 µM (inactive).

Regarding `C=C1C(=O)OC2/C=C(\CO)CC/C=C(\CO)CC(OC(=O)C(C)C)C12` (stereo not given), the GI50 is 8.75 µM (inactive) with MDA-MB-435; 7.4 µM (inactive) in the test on HCT-116; 13.3 µM (inactive) in the test on SN12C; 6.27 µM (inactive) with SK-MEL-28; 1.9 µM (inactive) in the test with CAKI-1; 21.5 µM (inactive) in the test with SNB-19. The GI50 was 13.5 µM (inactive) with LOX IMVI; 20.9 µM (inactive) with NCI-H460; 5.68 µM (inactive) with MDA-N; 1.56 µM (inactive) in the test with NCI-H522; 16 µM (inactive) with NCI-H226; 20.1 µM (inactive) with MDA-MB-231. Besides, the GI50 with PC-3 is 16.6 µM (inactive); in the test on TK-10, 3.94 µM (inactive); in the test on U-251 it was 18.1 µM (inactive); with ACHN, 1.95 µM (inactive); in the test on IGROV-1 it was 15.7 µM (inactive); with HCT-15, 3.19 µM. The values for the GI50 with SK-MEL-2 and in the test with MCF7 were 16.5 µM (inactive) and 2.66 µM (inactive), respectively.

On to `CC(=O)c1c2c(cc3c1CCC3)CCC2`, for which the GI50 in the test with MDA-MB-435 was > 100 µM (inactive); with HCT-116 it was 70.3 µM (inactive); in the test on SN12C, > 100 µM (inactive); in the test with SK-MEL-28, > 100 µM (inactive); with CAKI-1, > 100 µM (inactive); with SNB-19, > 100 µM (inactive). Besides, the GI50 in the test with LOX IMVI was > 100 µM (inactive); in the test on NCI-H460, > 100 µM (inactive); in the test with MDA-N it was > 100 µM (inactive); in the test with NCI-H522 it was > 100 µM (inactive); with NCI-H226, 82 µM (inactive); in the test on MDA-MB-231 it was > 100 µM (inactive). Further, the GI50 is 55.3 µM (inactive) in the test on PC-3; 49 µM (inactive) with TK-10; > 100 µM (inactive) in the test with U-251; > 100 µM (inactive) in the test on ACHN; > 100 µM (inactive) in the test with IGROV-1; > 100 µM with HCT-15. The GI50 with SK-MEL-2 and in the test on MCF7 was > 100 µM (inactive) each time.

Take `CNC(=O)O/N=C1\N(C)CN(c2ccccc2)C12CCN(CCCC(=O)c1ccc(F)cc1)CC2`: the GI50 in the test with MDA-MB-435 was 45.9 µM (inactive); with HCT-116, 33 µM (inactive); in the test with SN12C, > 100 µM (inactive); in the test on SK-MEL-28 it was > 100 µM (inactive); in the test on CAKI-1, > 100 µM (inactive); in the test with SNB-19, > 100 µM (inactive). The GI50 in the test with LOX IMVI was 31.1 µM (inactive); in the test with NCI-H460, 44.1 µM (inactive); in the test with MDA-N, 39.4 µM (inactive); in the test with NCI-H522, 99.8 µM (inactive); with NCI-H226, > 100 µM (inactive); with MDA-MB-231, 33.5 µM (inactive). The GI50 is > 100 µM (inactive) in the test with PC-3; 79.4 µM (inactive) in the test on TK-10; > 100 µM (inactive) in the test with U-251; 83.8 µM (inactive) in the test with ACHN; 46.8 µM (inactive) in the test with IGROV-1; > 100 µM in the test on HCT-15. Moreover, the GI50 in the test on SK-MEL-2 was 60.8 µM (inactive); in the test with MCF7, 47.9 µM (inactive).

For the molecule `Cn1c2ccccc2c(=S)c2cc(NC(=O)CCCCC(=O)Nc3ccc4c(c3)c(=S)c3ccccc3n4C)ccc21`, the GI50 with MDA-MB-435, with HCT-116, with SN12C, in the test on SK-MEL-28, with CAKI-1 and in the test with SNB-19 was > 100 µM (inactive) each time. For the same molecule, the GI50 in the test on LOX IMVI is > 100 µM (inactive); in the test with NCI-H460, > 100 µM (inactive); in the test on MDA-N, > 100 µM (inactive); in the test with NCI-H522 it was > 100 µM (inactive); in the test on NCI-H226, > 100 µM (inactive); in the test with MDA-MB-231, 65.9 µM (inactive). Also, the GI50 in the test on PC-3 was > 100 µM (inactive); with TK-10 it was > 100 µM (inactive); with U-251, 55.8 µM (inactive); with ACHN, > 100 µM (inactive); with IGROV-1, > 100 µM (inactive); in the test on HCT-15, > 100 µM. The GI50 in the test on SK-MEL-2 and with MCF7 was > 100 µM (inactive) in each case.

In the case of `Nc1csc(-c2scc3c2OCCO3)c1N`, the GI50 in the test on MDA-MB-435 was 15.5 µM (inactive); in the test with HCT-116, 20 µM (inactive); in the test on SN12C it was 17.3 µM (inactive); with SK-MEL-28 it was 17.5 µM (inactive); in the test on CAKI-1, 32.1 µM (inactive); with SNB-19, 32.7 µM (inactive). Also, the GI50 was 16 µM (inactive) with LOX IMVI; 22.5 µM (inactive) in the test with NCI-H460; 15.4 µM (inactive) in the test with MDA-N; 16.3 µM (inactive) in the test on NCI-H522; 17.3 µM (inactive) in the test with NCI-H226; 20.6 µM (inactive) in the test with MDA-MB-231. Moreover, the GI50 is 23 µM (inactive) in the test with PC-3; 33.1 µM (inactive) in the test with TK-10; 15.6 µM (inactive) with U-251; 36.4 µM (inactive) in the test on ACHN; 22.5 µM (inactive) in the test with IGROV-1; 17.7 µM in the test with HCT-15. The GI50 with SK-MEL-2 is 17.5 µM (inactive); in the test with MCF7 it was 16.4 µM (inactive).

Turning to `Cc1cccc2c(=O)c3cccc(CC(=O)O)c3oc12`, the GI50 in the test on MDA-MB-435, in the test on HCT-116, in the test on SN12C, with SK-MEL-28, in the test with CAKI-1 and in the test with SNB-19 was > 100 µM (inactive) in each case. In addition, the GI50 in the test on LOX IMVI, in the test with NCI-H460, in the test on MDA-N, with NCI-H522, with NCI-H226 and in the test on MDA-MB-231 was > 100 µM (inactive) each time. Also, the GI50 is > 100 µM (inactive) with PC-3; > 100 µM (inactive) with TK-10; > 100 µM (inactive) with U-251; > 100 µM (inactive) with ACHN; > 100 µM (inactive) with IGROV-1; > 100 µM in the test with HCT-15. Also, the GI50 in the test on SK-MEL-2 and in the test with MCF7 was > 100 µM (inactive) in each case.

On to `Nc1ccc(-c2nc3cc(F)ccc3s2)cc1Cl`, for which the GI50 was > 100 µM (inactive) in the test with MDA-MB-435; 0.0782 µM (active) in the test with HCT-116; 23.3 µM (inactive) in the test with SN12C; > 85.5 µM (inactive) in the test with SK-MEL-28; 8.67 µM (inactive) in the test with CAKI-1; 32.4 µM (inactive) in the test with SNB-19. The GI50 was > 77.4 µM (inactive) with LOX IMVI; 0.0364 µM (active) with NCI-H460; > 100 µM (inactive) in the test with MDA-N; 20.5 µM (inactive) in the test on NCI-H522; 0.109 µM (active) with NCI-H226; 5.08 µM (inactive) in the test on MDA-MB-231. Also, the GI50 with PC-3 was 20 µM (inactive); in the test on TK-10, 0.0357 µM (active); in the test on U-251, 20 µM (inactive); in the test on ACHN, 1.57 µM (inactive); with IGROV-1, < 0.01 µM (active); with HCT-15 it was 0.134 µM. Besides, the GI50 with SK-MEL-2 was 41.1 µM (inactive); with MCF7, 0.0102 µM (active).
